Results as given in publication PMC9940851, “Seleno Containing Compounds as Potent and Selective Antifungal Agents” (ACS Infectious Diseases, 2022).
Converted amounts (≈) assume the structure as drawn.

Columns and labels:
MpaCA = molecular target: T1, MpaCA (Malassezia pachydermatis, UniProt A0A0M8MPA4); assay: stopped-flow CO2 hydrase assay; type: biochemical
T1 construct: gene Malapachy_3798
T1 sequence (A0A0M8MPA4 1-242): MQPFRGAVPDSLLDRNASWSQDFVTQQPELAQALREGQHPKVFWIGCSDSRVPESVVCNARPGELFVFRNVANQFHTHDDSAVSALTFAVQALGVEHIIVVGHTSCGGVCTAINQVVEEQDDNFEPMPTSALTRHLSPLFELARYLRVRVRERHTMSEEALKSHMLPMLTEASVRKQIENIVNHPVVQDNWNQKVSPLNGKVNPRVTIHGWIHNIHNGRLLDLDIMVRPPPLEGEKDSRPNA

MgCA = molecular target: T2, MgCA (Malassezia globosa, UniProt A8Q1N3); assay: stopped-flow CO2 hydrase assay; type: biochemical
T2 construct: gene MGL_1814
T2 sequence (A8Q1N3 1-241): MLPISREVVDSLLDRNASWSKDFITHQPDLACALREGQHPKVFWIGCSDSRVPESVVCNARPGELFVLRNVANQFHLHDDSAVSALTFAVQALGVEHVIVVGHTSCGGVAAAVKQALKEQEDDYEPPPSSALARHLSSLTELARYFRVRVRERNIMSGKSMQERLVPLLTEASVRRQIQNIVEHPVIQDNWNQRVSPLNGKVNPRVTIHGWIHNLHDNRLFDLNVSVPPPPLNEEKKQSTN
In short: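 Ki was derived by nonlinear least-squares fitting using the Cheng-Prusoff equation. Recombinant carbonic anhydrase at 5–12 nM was first preincubated with inhibitor at room temperature for 15 min. CO2 hydration at 1.7–17 mM CO2 was tracked by stopped-flow over 10–100 s with 0.2 mM phenol red read at 557 nm, in 20 mM Hepes pH 7.4 containing 20 mM Na2SO4. Initial rates were taken from no fewer than six traces with uncatalysed rates subtracted, and at least three determinations were averaged.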

[1] = tested on: T3, M. pachydermatis DSMZ 6172; assay: microbe, parasite or virus in culture; parameters: broth microdilution MIC, M. pachydermatis and Candida, 35 °C; conditions: Malassezia pachydermatis, DSMZ6172
T3 construct: DSMZ 6172 (CDC 16334)
Protocol: (§1) Inoculum preparations for antifungal assays were performed following the CLSI guidelines for antifungal susceptibility testing of yeasts.[31] Antifungal activity was evaluated on unicellular yeasts Candida albicans ATCC 10231, Candida glabrata ATCC 90030 (DSMZ 11226), Malassezia pachydermatis CDC 16334 (DSMZ 6172), Malassezia globosa ATCC MYA 4612, and Malassezia furfur ATCC 14521. All the fungal strains were stored at −80 °C in cryovials. Then Candida spp. and Malassezia pachydermatis were reactivated in RPMI 1640 broth for 24–48 h at 35 °C. The so obtained fresh cultures were streaked onto Sabouraud dextrose agar and incubated for 24–48 h at 35 °C. Malassezia globosa and furfur were reactivated in modified RPMI 1640 broth[32] for 24–48 h at 35 °C (M. furfur) and 33 °C (M. globosa), and then the cultures were streaked onto Leeming and Notman agar (MLNA) and incubated for 48–72 h at 35 °C for M. furfur and at 33 °C for M. globosa. The fungal inoculum for the testing was prepared by suspending in phosphate buffer (PB) 10 mM pH 7 4–5 colonies of about 1 mm diameter. The fungal suspension was then adjusted to a final optical density of 0.5 McFarland standard (1–5 × 10^6 cells/mL). The compound solutions were tested in a range of concentrations from 0.01 μg/mL to 256 μg/mL, and 50 μL were then added in 96 wells microtiter plates with 50 μL of fungal inoculum and incubated for 24–48 h at 35 °C. Growth and sterility controls were performed. […] Compounds 3a, 3c, 5b, 7a–d, 9c, 11e, 11i, and 14a,b were selected as representatives of the chemical moieties synthesized prior to their screen on yeasts of biomedical relevance such as M. pachydermatis DSMZ 6172, C. albicans ATCC 10231, and C. glabrata ATCC 90030 (DSMZ 11226) strains. The clinical used drugs Ketoconazole, SeS2, and Amphotericin B were included as references (Table 1).

M. globosa ATCC MYA 4612 = tested on: T4, M. globosa ATCC MYA 4612; assay: microbe, parasite or virus in culture; conditions: Malassezia globosa
T4 construct: ATCC MYA 4612
Protocol: as §1

ATCC M. furfur 14521 = tested on: T5, ATCC M. furfur 14521; assay: microbe, parasite or virus in culture; conditions: Malassezia furfur
T5 construct: ATCC 14521
Protocol: as §1

SMILES	Ki (MpaCA)	Ki (MgCA)	MIC [1]	MIC (M. globosa ATCC MYA 4612)	MIC (ATCC M. furfur 14521)
NS(=O)(=O)c1ccc(NC(=[Se])Nc2ccc(F)cc2)cc1 [3b]	0.965 µM	0.648 µM	–	–	–
NS(=O)(=O)c1ccc(NC(=[Se])Nc2cccc(C(F)(F)F)c2)cc1 [3d]	0.617 µM	0.803 µM	6 ± 3.46 µg/mL (≈ 14.2 µM)	> 256 µg/mL	213 ± 73.9 µg/mL (≈ 505 µM)
NS(=O)(=O)c1ccc(NC(=[Se])Nc2ccccc2Cl)cc1 [3e]	0.693 µM	0.655 µM	1 ± 0.87 µg/mL (≈ 2.57 µM)	256 µg/mL (≈ 659 µM)	5.3 ± 2.31 µg/mL (≈ 13.6 µM)
NS(=O)(=O)c1cccc(NC(=[Se])Nc2ccccc2)c1 [4a]	0.283 µM	0.783 µM	4 µg/mL (≈ 11.3 µM)	256 µg/mL (≈ 723 µM)	107 ± 37 µg/mL (≈ 301 µM)
NS(=O)(=O)c1cccc(NC(=[Se])Nc2ccc(F)cc2)c1 [4b]	0.342 µM	0.7 µM	–	–	–
NS(=O)(=O)c1ccc(CCNC(=[Se])Nc2ccccc2)cc1 [5a]	0.793 µM	0.655 µM	–	–	–
NS(=O)(=O)c1ccc(CCNC(=[Se])Nc2cccc(C(F)(F)F)c2)cc1 [5c]	0.992 µM	0.701 µM	–	–	–
NS(=O)(=O)c1ccc(CCNC(=[Se])Nc2ccc(Br)cc2)cc1 [5d]	0.369 µM	0.683 µM	–	–	–
NS(=O)(=O)c1ccc(CCNC(=[Se])Nc2ccccc2Cl)cc1 [5e]	0.518 µM	0.812 µM	0.5 µg/mL (≈ 1.2 µM)	256 µg/mL (≈ 614 µM)	2.3 ± 1.53 µg/mL (≈ 5.52 µM)
COc1ccccc1NC(=[Se])NCCc1ccc(S(N)(=O)=O)cc1 [5f]	0.525 µM	0.411 µM	0.5 µg/mL (≈ 1.21 µM)	256 µg/mL (≈ 621 µM)	1.3 ± 0.58 µg/mL (≈ 3.15 µM)
NS(=O)(=O)c1ccc(CCNC(=[Se])Nc2ccc(I)cc2)cc1 [5g]	0.531 µM	0.689 µM	1 µg/mL (≈ 1.97 µM)	85.3 ± 37 µg/mL (≈ 168 µM)	1.7 ± 0.58 µg/mL (≈ 3.34 µM)
NS(=O)(=O)c1ccc(CCNC(=[Se])Nc2ccc3ccccc3c2)cc1 [5h]	0.26 µM	0.561 µM	0.5 µg/mL (≈ 1.16 µM)	64 µg/mL (≈ 148 µM)	1.7 ± 0.58 µg/mL (≈ 3.93 µM)
CCCCCCCc1ccc(C(=O)NC(=[Se])Nc2ccc(S(N)(=O)=O)cc2)cc1 [7e]	78.2 µM	5.88 µM	0.5 µg/mL (≈ 1.04 µM)	> 256 µg/mL	10.7 ± 4.62 µg/mL (≈ 22.3 µM)
NS(=O)(=O)c1ccc(NC(=[Se])NC(=O)c2ccc([N+](=O)[O-])cc2)cc1 [7f, 4-Nitro-N-((4-sulfamoylphenyl)carbamoselenoyl)benzamide]	85.4 µM	9.01 µM	2.2 ± 1.75 µg/mL (≈ 5.15 µM)	64 µg/mL (≈ 150 µM)	42.7 ± 18.5 µg/mL (≈ 99.9 µM)
NS(=O)(=O)c1ccc(NC(=[Se])NC(=O)c2ccc(I)cc2)cc1 [7g, 4-Iodo-N-((4-sulfamoylphenyl)carbamoselenoyl)benzamide]	76.1 µM	3.11 µM	0.5 µg/mL (≈ 0.984 µM)	256 µg/mL (≈ 504 µM)	6 ± 3.46 µg/mL (≈ 11.8 µM)
NS(=O)(=O)c1ccc(NC(=[Se])NC(=O)c2ccc(Br)cc2F)cc1 [7h, 4-Bromo-2-fluoro-N-((4-sulfamoylphenyl)carbamoselenoyl)benzamide]	68.5 µM	0.764 µM	0.5 µg/mL (≈ 1.04 µM)	64 µg/mL (≈ 134 µM)	3.3 ± 1.15 µg/mL (≈ 6.89 µM)

SMILES	Ki (MpaCA)	Ki (MgCA)	MIC [1]	MIC (M. globosa ATCC MYA 4612)	MIC (ATCC M. furfur 14521)
NS(=O)(=O)c1ccc(NC(=[Se])NC(=O)c2ccc(CCl)cc2)cc1 [7i, 4-(Chloromethyl)-N-((4-sulfamoylphenyl)carbamoselenoyl)benzamide]	67.7 µM	0.877 µM	6.7 ± 2.31 µg/mL (≈ 15.6 µM)	–	16 µg/mL (≈ 37.1 µM)
NS(=O)(=O)c1ccc(NC(=[Se])NC(=O)c2ccc(/N=N/c3ccccc3)cc2)cc1 [7j, (E)-4-(Phenyldiazenyl)-N-((4-sulfamoylphenyl)carbamoselenoyl)benzamide]	37 µM	2.86 µM	2 µg/mL (≈ 4.11 µM)	24 ± 13.9 µg/mL (≈ 49.3 µM)	21.3 ± 9.24 µg/mL (≈ 43.8 µM)
NS(=O)(=O)c1ccc(NC(=[Se])NC(=O)c2ccc(F)cc2)cc1 [7k, 4-Fluoro-N-((4-sulfamoylphenyl)carbamoselenoyl)benzamide]	80.8 µM	8.29 µM	0.5 µg/mL (≈ 1.25 µM)	256 µg/mL (≈ 640 µM)	5.3 ± 2.31 µg/mL (≈ 13.2 µM)
NS(=O)(=O)c1cccc(NC(=[Se])NC(=O)c2ccccc2)c1 [8a]	33.7 µM	4.14 µM	2 µg/mL (≈ 5.23 µM)	128 µg/mL (≈ 335 µM)	21.3 ± 9.24 µg/mL (≈ 55.7 µM)
CCCCCCCc1ccc(C(=O)NC(=[Se])Nc2cccc(S(N)(=O)=O)c2)cc1 [8b, 4-Heptyl-N-((3-sulfamoylphenyl)carbamoselenoyl)benzamide]	49.3 µM	2.19 µM	0.8 ± 0.29 µg/mL (≈ 1.66 µM)	213 ± 73.9 µg/mL (≈ 444 µM)	6.7 ± 2.31 µg/mL (≈ 13.9 µM)
NS(=O)(=O)c1cccc(NC(=[Se])NC(=O)c2cc(Br)cc(OC(F)(F)F)c2)c1 [8c, 3-Bromo-N-((3-sulfamoylphenyl)carbamoselenoyl)-5-(trifluoromethoxy)benzamide]	86.1 µM	7.65 µM	2 µg/mL (≈ 3.67 µM)	256 µg/mL (≈ 470 µM)	9.3 ± 6.11 µg/mL (≈ 17.1 µM)
NS(=O)(=O)c1cccc(NC(=[Se])NC(=O)c2ccc(F)cc2)c1 [8d, 4-Fluoro-N-((3-sulfamoylphenyl)carbamoselenoyl)benzamide]	79.5 µM	7.3 µM	2 µg/mL (≈ 5 µM)	256 µg/mL (≈ 640 µM)	256 µg/mL (≈ 640 µM)
NS(=O)(=O)c1cccc(NC(=[Se])NC(=O)c2ccc(I)cc2)c1 [8e, 4-Iodo-N-((3-sulfamoylphenyl)carbamoselenoyl)benzamide]	77.6 µM	8.74 µM	8 µg/mL (≈ 15.7 µM)	> 256 µg/mL	6.7 ± 2.31 µg/mL (≈ 13.2 µM)
NS(=O)(=O)c1cccc(NC(=[Se])NC(=O)c2ccc(Cl)cc2)c1 [8f, 4-Chloro-N-((3-sulfamoylphenyl)carbamoselenoyl)benzamide]	74.7 µM	2.08 µM	16 µg/mL (≈ 38.4 µM)	128 µg/mL (≈ 307 µM)	64 µg/mL (≈ 154 µM)
NS(=O)(=O)c1cccc(NC(=[Se])NC(=O)c2ccc(Br)cc2F)c1 [8g, 4-Bromo-2-fluoro-N-((3-sulfamoylphenyl)carbamoselenoyl)benzamide]	65.7 µM	3.48 µM	13.3 ± 4.6 µg/mL (≈ 27.8 µM)	128 µg/mL (≈ 267 µM)	8 µg/mL (≈ 16.7 µM)
NS(=O)(=O)c1ccc(CCNC(=[Se])NC(=O)c2ccccc2)cc1 [9a]	73.9 µM	0.565 µM	1 µg/mL (≈ 2.44 µM)	32 µg/mL (≈ 78 µM)	4 µg/mL (≈ 9.75 µM)
CCCCCCCc1ccc(C(=O)NC(=[Se])NCCc2ccc(S(N)(=O)=O)cc2)cc1 [9b, 4-Heptyl-N-((4-sulfamoylphenethyl)carbamoselenoyl)benzamide]	> 10 µM	6.39 µM	1.7 ± 0.58 µg/mL (≈ 3.34 µM)	256 µg/mL (≈ 503 µM)	1.7 ± 0.58 µg/mL (≈ 3.34 µM)
NS(=O)(=O)c1ccc(CCNC(=[Se])NC(=O)c2ccc(F)cc2)cc1 [9d, 4-Fluoro-N-((4-sulfamoylphenethyl)carbamoselenoyl)benzamide]	75 µM	8 µM	1 µg/mL (≈ 2.33 µM)	128 µg/mL (≈ 299 µM)	2.3 ± 2.31 µg/mL (≈ 5.37 µM)
NS(=O)(=O)c1ccc(CCNC(=[Se])NC(=O)c2ccc(I)cc2)cc1 [9e, 4-Iodo-N-((4-sulfamoylphenethyl)carbamoselenoyl)benzamide]	83.3 µM	1.57 µM	1 µg/mL (≈ 1.86 µM)	32 µg/mL (≈ 59.7 µM)	3.3 ± 1.15 µg/mL (≈ 6.15 µM)
NS(=O)(=O)c1ccc(CCNC(=[Se])NC(=O)c2ccc(/N=N/c3ccccc3)cc2)cc1 [9f, (E)-4-(Phenyldiazenyl)-N-((4-sulfamoylphenethyl)carbamoselenoyl)benzamide]	88.8 µM	2.39 µM	3.33 ± 1.15 µg/mL (≈ 6.47 µM)	8 µg/mL (≈ 15.6 µM)	2.7 ± 1.15 µg/mL (≈ 5.25 µM)
